Assay results taken from article PMC7930720, “Functional Expression of the Human Glucose Transporters GLUT2 and GLUT3 in Yeast Offers Novel Screening Systems for GLUT-Targeting Drugs” (Frontiers in Molecular Biosciences, 2021).

Tests used:
Assay type in all cases: cell-based
GLUT2 [1] = biological target: T1, GLUT2 (Homo sapiens, UniProt P11168, A89S/DEL55-88/Q455R); test: inhibition of […]-glucose ([…]) uptake in hxt0 EBY.S7 yeast expressing the transporter
T1 construct: gene SLC2A2
T1 sequence (P11168 with tags, fused parts or gaps DEL55-88/A89S/Q455R): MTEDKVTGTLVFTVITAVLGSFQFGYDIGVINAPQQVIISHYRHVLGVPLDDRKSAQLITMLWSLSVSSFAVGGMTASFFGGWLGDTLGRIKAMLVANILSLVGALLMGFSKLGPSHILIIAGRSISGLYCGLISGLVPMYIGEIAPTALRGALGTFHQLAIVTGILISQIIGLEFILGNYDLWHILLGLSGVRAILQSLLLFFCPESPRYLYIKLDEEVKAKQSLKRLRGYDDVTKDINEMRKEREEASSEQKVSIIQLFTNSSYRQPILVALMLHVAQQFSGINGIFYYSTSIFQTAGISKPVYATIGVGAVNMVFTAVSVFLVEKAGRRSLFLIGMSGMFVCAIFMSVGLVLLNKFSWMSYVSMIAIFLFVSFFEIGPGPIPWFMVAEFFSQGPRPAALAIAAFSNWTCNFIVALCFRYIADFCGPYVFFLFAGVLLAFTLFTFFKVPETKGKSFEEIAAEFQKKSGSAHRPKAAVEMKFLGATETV

GLUT3 [2] = biological target: T2, GLUT3 (Homo sapiens, UniProt P11169, S66Y); test: as above
T2 construct: gene SLC2A3; GLUT3S66Y
T2 sequence (P11169 1-496 S66Y): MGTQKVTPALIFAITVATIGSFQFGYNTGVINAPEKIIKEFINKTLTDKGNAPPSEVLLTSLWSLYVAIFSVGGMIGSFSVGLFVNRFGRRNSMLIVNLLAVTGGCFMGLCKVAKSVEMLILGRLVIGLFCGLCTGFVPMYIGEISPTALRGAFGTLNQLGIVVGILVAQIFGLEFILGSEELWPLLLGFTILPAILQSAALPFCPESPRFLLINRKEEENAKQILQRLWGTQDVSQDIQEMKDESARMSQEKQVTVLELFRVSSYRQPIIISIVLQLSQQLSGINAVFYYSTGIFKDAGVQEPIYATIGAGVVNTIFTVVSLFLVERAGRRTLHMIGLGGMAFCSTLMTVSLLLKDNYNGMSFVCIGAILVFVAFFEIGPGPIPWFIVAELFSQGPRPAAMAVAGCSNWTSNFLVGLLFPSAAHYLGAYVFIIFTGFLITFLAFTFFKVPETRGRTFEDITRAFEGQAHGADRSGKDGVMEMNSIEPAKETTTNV

GLUT3 [3] = biological target: T2, GLUT3; test: inhibition of […]-glucose ([…]) uptake in hxt0 EBY.S7 yeast expressing the transporter; growth assay
GLUT2 [4] = biological target: T1, GLUT2; test: as above

IC50 (GLUT3 [3])	IC50 (GLUT2 [4])	SMILES	IC50 (GLUT2 [1])	IC50 (GLUT3 [2])
–	–	O=c1c(O)c(-c2ccc(O)c(O)c2)oc2cc(O)cc(O)c12 [quercetin]	3.22 ± 0.45 µM	11.6 ± 0.6 µM
22.4 ± 1.8 µM	1070 ± 110 nM	O=C(CCc1ccc(O)cc1)c1c(O)cc(O)cc1O [phloretin]	–	–
